The results in this text go back to patent US10206394B2, “Herbicidal compounds” (Syngenta Participations AG, priority 2014, dated 2019).

Where two headings read alike, the source gives them in different places.

Common to all, as to experiment: Glasshouse assay for herbicidal activity (pre- and post-emergence), percentage phytotoxicity
What all share (type): in vivo

One test deals with Avena fatua (AVEFA). Particulars: Avena fatua, rate 250 g/ha. An outline of the steps:
(§1)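 Pot-grown, standard soil. PRE: spray 1 d post-sowing; POST: ~12 d. Glasshouse 24/18 °C (warm spp.) / 20/16 °C (cool spp.), 16 h light, 65% RH, watered 2×/day. Visual % damage, 20 DAA PRE, 15 DAA POST.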

The next test deals with Lolium perenne (LOLPE). To be noted: Lolium perenne, rate 250 g/ha. An outline of the steps: as §1
Test [1] has as its system Alopecurus myosuroides (ALOMY). To be noted: Alopecurus myosuroides, rate 250 g/ha. An outline of the steps: as §1
The subject of test [2] is Echinochloa crus-galli (ECHCG). To be noted: Echinochloa crus-galli, rate 250 g/ha. An outline of the steps:
as §1

The mark [3] stands for this setting: post-emergence, 360 h, POST-emergence, visual score 15 DAA (100%=total damage, 0%=no damage), read-out: Post-emergence herbicidal activity (percentage phytotoxicity) AVEFA POST.
[4] abbreviates: pre-emergence, 480 h, PRE-emergence, visual score 20 DAA (100%=total damage, 0%=no damage), read-out: Pre-emergence herbicidal activity (percentage phytotoxicity) AVEFA PRE.
Setting [5] is: post-emergence, 360 h, POST-emergence, visual score 15 DAA (100%=total damage, 0%=no damage), read-out: Post-emergence herbicidal activity (percentage phytotoxicity) LOLPE POST.
Setting [6] is: pre-emergence, 480 h, PRE-emergence, visual score 20 DAA (100%=total damage, 0%=no damage), read-out: Pre-emergence herbicidal activity (percentage phytotoxicity) LOLPE PRE.
The mark [7] stands for this setting: post-emergence, 360 h, POST-emergence, visual score 15 DAA (100%=total damage, 0%=no damage), read-out: Post-emergence herbicidal activity (percentage phytotoxicity) ALOMY POST.
Setting [8] is: pre-emergence, 480 h, PRE-emergence, visual score 20 DAA (100%=total damage, 0%=no damage), read-out: Pre-emergence herbicidal activity (percentage phytotoxicity) ALOMY PRE.
Setting [9] is: post-emergence, 360 h, POST-emergence, visual score 15 DAA (100%=total damage, 0%=no damage), read-out: Post-emergence herbicidal activity (percentage phytotoxicity) ECHCG POST.
Where [10] appears, read: pre-emergence, 480 h, PRE-emergence, visual score 20 DAA (100%=total damage, 0%=no damage), read-out: Pre-emergence herbicidal activity (percentage phytotoxicity) ECHCG PRE.

Take `COc1ccc(CNC(=O)CC2CC(=O)C(c3c(C)cc(OCC(F)(F)F)cc3C)C2=O)cc1` (stereo not drawn) [Compound B206]: the pest or weed control at 250 g/ha amounted to 90% in the test on Avena fatua (AVEFA) (setting [3]); 70% with Avena fatua (AVEFA) (setting [4]); 90% with Lolium perenne (LOLPE) (setting [5]); 80% with Lolium perenne (LOLPE) (setting [6]); 90% in test [1] (setting [7]); 80% in test [1] (setting [8]). The pest or weed control at 250 g/ha in test [2] (setting [9]) and in test [2] (setting [10]) was 90% in each case.
In the case of `Cc1cc(OCC(F)(F)F)cc(C)c1C1C(=O)CC(CC(=O)NCc2ccc(C#N)cc2)C1=O` (stereo not drawn) [Compound B207], the pest or weed control at 250 g/ha in the test with Avena fatua (AVEFA) (setting [3]) turned out to be 50%; with Avena fatua (AVEFA) (setting [4]) it was 0%; with Lolium perenne (LOLPE) (setting [5]), 60%; in the test on Lolium perenne (LOLPE) (setting [6]) it was 10%; in test [1] (setting [7]), 80%; in test [1] (setting [8]) it was 40%. For the same compound, the results for the pest or weed control at 250 g/ha in test [2] (setting [9]) and in test [2] (setting [10]) were 90% and 40%, respectively.
As to `Cc1cc(OCC(F)(F)F)cc(C)c1C1C(=O)CC(CC(=O)NC(C)C)C1=O` (stereo not drawn) [Compound B208], the pest or weed control at 250 g/ha with Avena fatua (AVEFA) (setting [3]) was 90%; with Avena fatua (AVEFA) (setting [4]) it was 80%; in the test on Lolium perenne (LOLPE) (setting [5]), 90%; in the test on Lolium perenne (LOLPE) (setting [6]) it was 80%; in test [1] (setting [7]), 90%; in test [1] (setting [8]), 90%. Also, the pest or weed control at 250 g/ha in test [2] (setting [9]) and in test [2] (setting [10]) was 100% throughout.
`C=CCNC(=O)CC1CC(=O)C(c2c(C)cc(OCC(F)(F)F)cc2C)C1=O` (stereo not drawn) [Compound B209]: the pest or weed control at 250 g/ha came to 80% with Avena fatua (AVEFA) (setting [3]); 80% in the test with Avena fatua (AVEFA) (setting [4]); 80% in the test on Lolium perenne (LOLPE) (setting [5]); 90% with Lolium perenne (LOLPE) (setting [6]); 90% in test [1] (setting [7]); 100% in test [1] (setting [8]). Further, the pest or weed control at 250 g/ha in test [2] (setting [9]) and in test [2] (setting [10]) was 100% each time.
Consider `Cc1cc(OCC(F)(F)F)cc(C)c1C1C(=O)CC(CC(=O)NCC2CC2)C1=O` (stereo not drawn) [Compound B210], for which the pest or weed control at 250 g/ha in the test with Avena fatua (AVEFA) (setting [3]) came to 90%; in the test with Avena fatua (AVEFA) (setting [4]), 80%; in the test with Lolium perenne (LOLPE) (setting [5]), 90%; in the test with Lolium perenne (LOLPE) (setting [6]) it was 100%; in test [1] (setting [7]), 100%; in test [1] (setting [8]), 100%. Also, the pest or weed control at 250 g/ha in test [2] (setting [9]) and in test [2] (setting [10]) was 100% throughout.
`CCN(C)C(=O)CC1CC(=O)C(c2c(C)cc(OCC(F)(F)F)cc2C)C1=O` (stereo not drawn) [Compound B211]: the pest or weed control at 250 g/ha in the test with Avena fatua (AVEFA) (setting [3]) turned out to be 90%; in the test with Avena fatua (AVEFA) (setting [4]), 80%; in the test with Lolium perenne (LOLPE) (setting [5]) it was 90%; in test [1] (setting [7]), 90%; in test [1] (setting [8]), 90%; in test [2] (setting [9]) it was 100%. Besides, the pest or weed control at 250 g/ha in test [2] (setting [10]) turned out to be 100%.
In the case of `Cc1cc(OCC(F)(F)F)cc(C)c1C1C(=O)CC(CC(=O)N(C)C(C)(C)C)C1=O` (stereo not drawn) [Compound B212], the pest or weed control at 250 g/ha with Avena fatua (AVEFA) (setting [3]) amounted to 60%; in the test on Avena fatua (AVEFA) (setting [4]) it was 60%; in the test on Lolium perenne (LOLPE) (setting [5]), 70%; with Lolium perenne (LOLPE) (setting [6]), 90%; in test [1] (setting [7]), 90%; in test [1] (setting [8]), 60%. For the same compound, the pest or weed control at 250 g/ha in test [2] (setting [9]) is 90%; in test [2] (setting [10]), 100%.
Regarding `C#CCN(C)C(=O)CC1CC(=O)C(c2c(C)cc(OCC(F)(F)F)cc2C)C1=O` (stereo not drawn) [Compound B213], the pest or weed control at 250 g/ha in the test with Avena fatua (AVEFA) (setting [3]) worked out at 90%; with Avena fatua (AVEFA) (setting [4]), 50%; in the test with Lolium perenne (LOLPE) (setting [5]) it was 90%; with Lolium perenne (LOLPE) (setting [6]) it was 70%; in test [1] (setting [7]) it was 90%; in test [1] (setting [8]), 80%. For the same compound, the pest or weed control at 250 g/ha in test [2] (setting [9]) worked out at 100%; in test [2] (setting [10]) it was 90%.
For the compound `CCc1cc(OCC(F)(F)F)cc(C)c1C1C(=O)CC(CC(=O)NCc2cccc(F)c2)C1=O` (stereo not drawn) [Compound B214], the pest or weed control at 250 g/ha in the test on Avena fatua (AVEFA) (setting [3]) stood at 100%; with Avena fatua (AVEFA) (setting [4]) it was 90%; with Lolium perenne (LOLPE) (setting [5]), 100%; in the test with Lolium perenne (LOLPE) (setting [6]), 90%; in test [1] (setting [7]) it was 100%; in test [1] (setting [8]), 100%. The pest or weed control at 250 g/ha in test [2] (setting [9]) and in test [2] (setting [10]) was 100% throughout.
Take `CCc1cc(OCC(F)(F)F)cc(C)c1C1C(=O)CC(CC(=O)NCc2ccc(OC)cc2)C1=O` (stereo not drawn) [Compound B215]: the pest or weed control at 250 g/ha with Avena fatua (AVEFA) (setting [3]) came out at 100%; with Avena fatua (AVEFA) (setting [4]), 80%; in the test on Lolium perenne (LOLPE) (setting [5]), 100%; with Lolium perenne (LOLPE) (setting [6]) it was 90%; in test [1] (setting [7]) it was 100%; in test [1] (setting [8]) it was 90%. Also, the figures for the pest or weed control at 250 g/ha in test [2] (setting [9]) and in test [2] (setting [10]) were 100% and 90%, respectively.
As for `CCc1cc(OCC(F)(F)F)cc(C)c1C1C(=O)CC(CC(=O)NCc2ccc(C#N)cc2)C1=O` (stereo not drawn) [Compound B216], the pest or weed control at 250 g/ha in the test on Avena fatua (AVEFA) (setting [3]) came out at 90%; with Avena fatua (AVEFA) (setting [4]), 70%; in the test with Lolium perenne (LOLPE) (setting [5]), 90%; with Lolium perenne (LOLPE) (setting [6]), 70%; in test [1] (setting [7]), 100%; in test [1] (setting [8]) it was 80%. Further, the figures for the pest or weed control at 250 g/ha in test [2] (setting [9]) and in test [2] (setting [10]) were 100% and 90%, respectively.
`CCc1cc(OCC(F)(F)F)cc(C)c1C1C(=O)CC(CC(=O)NC(C)C)C1=O` (stereo not drawn) [Compound B217]: the pest or weed control at 250 g/ha (in the test on Avena fatua (AVEFA) (setting [3]); in the test with Avena fatua (AVEFA) (setting [4]); in the test with Lolium perenne (LOLPE) (setting [5]); in the test with Lolium perenne (LOLPE) (setting [6]); in test [1] (setting [7]); in test [1] (setting [8])) was 100% in each case. Besides, the pest or weed control at 250 g/ha in test [2] (setting [9]) and in test [2] (setting [10]) was 100% throughout.
Consider `C=CCNC(=O)CC1CC(=O)C(c2c(C)cc(OCC(F)(F)F)cc2CC)C1=O` (stereo not drawn) [Compound B218], for which the pest or weed control at 250 g/ha with Avena fatua (AVEFA) (setting [3]) was 100%; in the test with Avena fatua (AVEFA) (setting [4]) it was 90%; in the test with Lolium perenne (LOLPE) (setting [5]), 100%; in the test on Lolium perenne (LOLPE) (setting [6]) it was 100%; in test [1] (setting [7]), 100%; in test [1] (setting [8]), 100%. Moreover, the pest or weed control at 250 g/ha in test [2] (setting [9]) and in test [2] (setting [10]) was 100% each time.
Consider `CCc1cc(OCC(F)(F)F)cc(C)c1C1C(=O)CC(CC(=O)NCC2CC2)C1=O` (stereo not drawn) [Compound B219], for which the pest or weed control at 250 g/ha amounted to 100% in the test on Avena fatua (AVEFA) (setting [3]); 90% with Avena fatua (AVEFA) (setting [4]); 100% with Lolium perenne (LOLPE) (setting [5]); 100% with Lolium perenne (LOLPE) (setting [6]); 100% in test [1] (setting [7]); 100% in test [1] (setting [8]). Moreover, the figures for the pest or weed control at 250 g/ha in test [2] (setting [9]) and in test [2] (setting [10]) were 100% and 90%, respectively.
Regarding `CCc1cc(OCC(F)(F)F)cc(C)c1C1C(=O)CC(CC(=O)N(C)CC)C1=O` (stereo not drawn) [Compound B220], the pest or weed control at 250 g/ha was 100% in the test on Avena fatua (AVEFA) (setting [3]); 90% with Avena fatua (AVEFA) (setting [4]); 100% in the test on Lolium perenne (LOLPE) (setting [5]); 100% in the test with Lolium perenne (LOLPE) (setting [6]); 100% in test [1] (setting [7]); 100% in test [1] (setting [8]). Moreover, the pest or weed control at 250 g/ha in test [2] (setting [9]) and in test [2] (setting [10]) was 100% each time.
Take `CCc1cc(OCC(F)(F)F)cc(C)c1C1C(=O)CC(CC(=O)N(C)C(C)(C)C)C1=O` (stereo not drawn) [Compound B221]: the pest or weed control at 250 g/ha (in the test with Avena fatua (AVEFA) (setting [3]); in the test on Avena fatua (AVEFA) (setting [4]); in the test on Lolium perenne (LOLPE) (setting [5]); in the test with Lolium perenne (LOLPE) (setting [6]); in test [1] (setting [7]); in test [1] (setting [8])) was 100% each time. The pest or weed control at 250 g/ha in test [2] (setting [9]) and in test [2] (setting [10]) was 100% each time.
Consider `C#CCN(C)C(=O)CC1CC(=O)C(c2c(C)cc(OCC(F)(F)F)cc2CC)C1=O` (stereo not drawn) [Compound B222], for which the pest or weed control at 250 g/ha is 100% with Avena fatua (AVEFA) (setting [3]); 90% with Avena fatua (AVEFA) (setting [4]); 100% in the test on Lolium perenne (LOLPE) (setting [5]); 100% in the test on Lolium perenne (LOLPE) (setting [6]); 100% in test [1] (setting [7]); 100% in test [1] (setting [8]). The pest or weed control at 250 g/ha in test [2] (setting [9]) and in test [2] (setting [10]) was 100% each time.
